Experimental findings from patent US4868162A, “Antiviral agent” (Teijin Limited, priority 1985, dated 1989) are described below.

Molecules are shown by their SMILES. Converted amounts (≈) assume the structure as drawn.

Series [1] has as its system herpes simplex type I virus (KOS strain). As to the kind of experiment: Plaque reduction in herpes simplex type I infected Vero cells (Example 1, 1,000 pfu/ml). The class given is cell-based. Conditions: for Therapeutic index MTD/ED50: HSV-1 KOS 1,000 pfu/ml, 2880 min; for EC50: Human alphaherpesvirus 1, HSV-1 KOS 1,000 pfu/ml, 48-hour culture, read-out: ED50 (effective dose which suppressed the formation of plaques by 50% in number). The method, then: (§1) Vero cells were cultured in Eagle minimum essential medium (MEM) containing 5% calf serum (CS) and were made to proliferate by means of monolayer cell culture. The cells were inoculated with 0.1 ml of herpes simplex type I virus (KOS strain) adjusted to 1,000 pfu/ml, which were allowed to hold on the host cells by adsorption for 1 hour at 37° C. Thereafter, the test compound, inclusive of the compounds of this invention, were added thereto respectively in concentration of 0.01~1,000 μg/ml.
(§2) After 48-hour culture in CS-MEM medium was over, the effective dose of each test compound which suppressed the formation of plaques by 50% in number (ED50) and the minimum toxic dose (MTD) which caused the cytotoxicity were measured.

The nature of series [2]: Cytotoxicity, minimum toxic dose in Vero cells (Example 1). The class given is cell-based, African green monkey. Conditions: monkey. As for the experimental part:
as §1, §2

Series [3] is described as follows: in vitro. The series is classed as cell-based, African green monkey. Conditions: monkey, vero cells. The method, then: Vero cells were cultured in Eagle minimum 1 medium (MEM) containing 5% calf serum (CS) and were made to proliferate after the monolayer cell culture method. […] After 48-hour culture in 2% CS-MEM medium was over, the effective dose of each test compound which suppressed the formation of plaques by 50% in number (EDs) and the minimum toxic dose (MTD) which caused the cytotoxicity were measured.

Series [4] relates to herpes simplex type I virus (KOS strain). As to the kind of experiment: Plaque reduction in herpes simplex type I infected Vero cells (Example 2, 10,000 pfu/ml). The class given is cell-based. The note with it: HSV-1 KOS 10,000 pfu/ml; for EC50: Human alphaherpesvirus 1, 48-hour culture, read-out: ED50 (effective dose which suppressed the formation of plaques by 50% in number); for EC50 / Therapeutic index MTD/ED50: Vero cells; for Therapeutic index MTD/ED50: 2880 min. As for the experimental part:
Vero cells were cultured in Eagle minimum
1 medium (MEM) containing 5% calf serum (CS) and were made to proliferate after the monolayer cell culture method. The cultured cells were inoculated with 0.1 ml of herpes simplex type I virus (KOS strain) of 10,000 pfu/ml concentration, which were left to be adsorbed by the host cells at 37° C. for 1 hour. The test compounds, inclusive of the compounds of this invention, were added to the cultures respectively in concentration of 0.001~1,000 μg/ml.
After 48-hour culture in 2% CS-MEM medium was over, the effective dose of each test compound which suppressed the formation of plaques by 50% in number (EDs) and the minimum toxic dose (MTD) which caused the cytotoxicity were measured.

Series [5] is described as follows: in vitro. Conditions: monkey, vero cells. The series is classed as cell-based, African green monkey. As for the experimental part:
(§3) Vero cells. were cultured in Eagle essential medium (MEM) containing 5% fetal calf serum (FCS) and were made to proliferate after the monolayer cell culture method. The cells were inoculated with 0.1 ml of herpes simplex type I virus (KOS strain) of 2,000 pfu/ml concentration, which were made to be adsorbed by the host cells at 37° C. for 1 hour. The virus that were not yet adsorbed were washed away with a 2% CS-MEM medium and then test compounds, inclusive of the compounds of this invention, were added to the cultures respectively in concentration of 0.01~1,000 μg/ml.
(§4) After 48-hour culture in 2% CS-MEM medium was over, the effective dose of each test compound which suppressed the formation of plaques by 50% in number (ED50) and the minimum toxic dose (MTD) which caused the cytotoxicity were measured.
This is another data set of the same source.

Series [6] deals with herpes simplex type I virus (KOS strain). As to the kind of experiment: Plaque reduction in herpes simplex type I infected Vero cells (Example 3, 2,000 pfu/ml). The series is classed as cell-based. The note with it: for Therapeutic index MTD/ED50: HSV-1 KOS 2,000 pfu/ml, 2880 min; for EC50: Human alphaherpesvirus 1, HSV-1 KOS 2,000 pfu/ml, 48-hour culture, read-out: ED50 (effective dose which suppressed the formation of plaques by 50% in number). As for the experimental part: as §3, §4

As to `CCCCCCCCCCCCCCCC(=O)OC[C@H]1O[C@@H](n2cc(F)c(=O)[nH]c2=O)C[C@@H]1OC(=O)CCCCCCCCCCCCCCC` [3',5'-dihexadecanoyl-5-fluoro-2'-deoxyuridine], in series [1], the “Therapeutic index MTD/ED50” value is 2,000 and the EC50 stood at 0.077 µg/mL (≈ 0.106 µM). In series [2] (vero cells), this compound registered an MCC at 48 h of 150 µg/mL.
Consider `CCCCCCCCCC(=O)OC[C@H]1O[C@@H](n2cc(F)c(=O)[nH]c2=O)C[C@@H]1OC(=O)CCCCCCCCC` [3',5'-didecanoyl-5-fluoro-2'deoxyuridine, 3',5'-didecanoyl-5-fluoro-2'-deoxyuridine], for which, in series [3], the MCC at 48 h was found to be 100 µg/mL. Further, in series [4], the EC50 amounted to 0.038 µg/mL (≈ 0.0685 µM) and the “Therapeutic index MTD/ED50” value was 2,600.
Consider `CCCCCCCCCCCC(=O)OC[C@H]1O[C@@H](n2cc(F)c(=O)[nH]c2=O)C[C@@H]1OC(=O)CCCCCCCCCCC` [3',5'-didodecanoyl-5-fluoro-2'-deoxyuridine], for which, in series [1], the “Therapeutic index MTD/ED50” value is recorded as 1,900 and the EC50 was 0.054 µg/mL (≈ 0.0884 µM). This compound registered an MCC at 48 h in series [2] (vero cells) of 100 µg/mL.
Turning to `Nc1nc2c(ncn2COCCO)c(=O)[nH]1` [9-(2-hydroxyethoxymethyl)guanine, reference compound], the MCC at 48 h in series [3], in series [5] and in series [2] (vero cells) was 1000 µg/mL in each case. Moreover, the “Therapeutic index MTD/ED50” value is reported as 279 in series [6], 140 in series [4] and 1,000 in series [1]. Moreover, the figures for the EC50 in series [6], in series [4] and in series [1] were 3.36 µg/mL (≈ 14.9 µM), 7.26 µg/mL (≈ 32.2 µM) and 0.991 µg/mL (≈ 4.4 µM), respectively.
In the case of `CCCCCCCC(=O)OC[C@H]1O[C@@H](n2cc(I)c(=O)[nH]c2=O)C[C@@H]1OC(=O)CCCCCCC` [3',5'-dioctanoyl-5-iodo-2'-deoxyuridine], the MCC at 48 h in series [5] was 10 µg/mL. In addition, in series [6], the “Therapeutic index MTD/ED50” value is 35 and the EC50 turned out to be 0.285 µg/mL (≈ 0.47 µM).
In series [3], `CCCCCCCC(=O)OC[C@H]1O[C@@H](n2cc(F)c(=O)[nH]c2=O)C[C@@H]1OC(=O)CCCCCCC` [3',5'-dioctanoyl-5-fluoro-2'-deoxyuridine] returned an MCC at 48 h of 100 µg/mL. In series [4], the EC50 turned out to be 0.018 µg/mL (≈ 0.0361 µM) and the “Therapeutic index MTD/ED50” value is listed as 5,600. The “effective dose relative to that of Acyclovir for the same effect” value in series [4] (fraction of Acyclovir effective dose) is “about 1/400”.
Consider `CCCCCCCCCCCCCC(=O)OC[C@H]1O[C@@H](n2cc(F)c(=O)[nH]c2=O)C[C@@H]1OC(=O)CCCCCCCCCCCCC` [3',5'-ditetradecanoyl-5-fluoro-2'-deoxyuridine], for which, in series [1], the “Therapeutic index MTD/ED50” value is on record as 2,000 and the EC50 worked out at 0.049 µg/mL (≈ 0.0735 µM). Moreover, the MCC at 48 h in series [2] (vero cells) came to 100 µg/mL.
In the case of `O=c1[nH]c(=O)n([C@H]2C[C@H](O)[C@@H](CO)O2)cc1F` [5-fluoro-2'-deoxyuridine, reference compound], in series [1], the “Therapeutic index MTD/ED50” value is reported as 10 and the EC50 worked out at 0.01 µg/mL (≈ 0.0406 µM). For the same compound, the MCC at 48 h in series [2] (Vero cells, Example 1, 48-hour culture, read-out: MTD (minimum toxic dose which caused the cytotoxicity)) came out at 0.1 µg/mL.
`O=C(OC[C@H]1O[C@@H](n2cc(F)c(=O)[nH]c2=O)C[C@@H]1OC(=O)c1ccccc1)c1ccccc1` [3',5'-dibenzoyl-5-fluoro-2'-deoxyuridine]: the MCC at 48 h in series [5] is 100 µg/mL. Besides, in series [6], the “Therapeutic index MTD/ED50” value is 893 and the EC50 turned out to be 0.112 µg/mL (≈ 0.246 µM).
